From patent US20220289794A1, “SYNTHETIC ANTIMICROBIAL PEPTIDES” (priority 2019, published 2022)
Read-outs that look alike come from different tables or passages of the source. Blank lines part the entries; values can stand above or below the molecule they belong to. Positions of bridges follow the written chain, without caps; N, C: chain ends. Residues, ends and D or L forms follow the SMILES beside them.

How the values were obtained:
[1] = test system: Pseudomonas aeruginosa (PSA, ATCC 27883); assay: Synergy checkerboard assay (FIC index); format: cell-based; details: Pseudomonas aeruginosa (ATCC 27883)
[2] = test system: Klebsiella pneumoniae (KPC, ATCC BAA-1705); details: ATCC BAA-1705
[3] = test system: Escherichia coli (E. Coli, ATCC 25922); details: ATCC 25922
MRSA (ATCC BAA-1556) = details: MRSA (ATCC BAA-1556)
[4] = test system: Klebsiella pneumoniae (KPC, ATCC BAA-1705); details: Klebsiella pneumoniae (ATCC BAA-1705)
[5] = test system: Escherichia coli (E. Coli, ATCC 25922); details: Escherichia coli (ATCC 25922)
[6] = test system: Methicillin-resistant Staphylococcus aureus MRSA (ATCC BAA-1556); details: ATCC BAA-1556
[7] = test system: Pseudomonas aeruginosa (PSA, ATCC 27883); details: ATCC 27883
[8] = format: in vivo; details: for Average Body Weight / Average Body Weight Growth Rate: Female (M40~M42)
Description: In-vivo toxicity study of IFX301. 1. Dose formulations were prepared freshly on dosing day. Doses started from the low to high levels and staggered with 4 h up to 24 h between doses with animals. A dose was escalated or decreased if the test compound appears to be generally tolerated well or not. The cage side observation was done twice daily. The clinical observation was conducted prior to randomization and dosing daily thereafter (at least hourly for the first 4 hours after dosing) and prior to termination for mortality, morbidity check, and clinical signs. Bodyweight was monitored prior to randomization and dosing, daily thereafter, and prior to termination. Gross necropsy was done for all scheduled animals on day 8. Full gross necropsy was conducted, this includes a macroscopic examination of the external surface of the body, all orifices, cranial cavity, the external surface of the brain and cut surfaces of the spinal cord, and the cranial, thoracic, abdominal and pelvic cavities and their viscera, cervical areas, carcass, and genitalia; The animal identification and selected tissues (sex appropriate) identified in Table 38 were sampled and preserved in 10% neutral buffered formalin (NBF). For unscheduled animals (found dead and moribund sacrificed animals): gross necropsy was conducted, and tissues were preserved for possible histology to determine the cause of death. Histopathology was done for adrenal glands, brain, cecum, colon, duodenum, heart, ileum, jejunum, kidneys, liver, rectum, spleen, stomach, thymus lung, pancreas and the testis (ovaries); total 16 tissues/mouse.

[9] = test system: Escherichia coli (ATCC 25922); format: cell-based
Description: (§1) All bacteria pathogens tested clinically reported multi-drug resistant strains. The antibacterial activity was tested against Gram-negative strains namely; Pseudomonas aeruginosa (PSA), Klebsiella pneumoniae (KPC), Escherichia coli (E. coli) and Gram-positive Methicillin-resistant Staphylococcus aureus (MRSA). The minimum inhibitory concentration (MIC) is the lowest concentration of the antibiotic that inhibits microbial growths. MIC is determined by visual inspection or use of spectrophotometer plate reader to determine media turbidity. On the other hand, the minimum bactericidal concentration (MBC) is the lowest concentration that kills […] of bacterial growth. Cytotoxicity of peptides in the hepatic cell line, human skin fibroblast cell line, heart/myocardium cells, and human lung fibroblast cells is shown in FIGS. 36-46). […] (IFX-315)-Au-NP with antibiotics are shown in FIGS. 49-58 when the gold nanoparticles are formed by the peptide followed by addition of the antibiotic. […] (IFX-301) with antibiotics (1:1 ratio) first and then used in the synthesis of Au-NP in antibacterial activities is shown in FIGS. 59-68.
(§2) The MBC is identified by determining the lowest concentration of antibacterial agent that reduces the viability (concentration of peptides necessary to achieve a bactericidal effect) of the initial bacterial inoculum by ≥99.9%.

[10] = test system: Methicillin-resistant Staphylococcus aureus MRSA (ATCC BAA-1556); format: cell-based
Description: as §1, §2

[11] = test system: Pseudomonas aeruginosa (ATCC 27883); format: cell-based; details: ATCC 27883
Description: as §1, §2

[12] = test system: Methicillin-resistant Staphylococcus aureus MRSA (ATCC BAA-1556); details: ATCC BAA-1556; remark: listed apart in the source
[13] = test system: Pseudomonas aeruginosa (ATCC 27883); details: ATCC 27883
[14] = test system: Escherichia coli (ATCC 25922); details: ATCC 25922
[15] = test system: Klebsiella pneumoniae (ATCC BAA-1705); details: ATCC BAA-1705
[16] = peptide part of FIC antibiotic/peptides, in combination with antibiotic
[17] = Table 25, peptide in combination with antibiotics
[18] = Average, ICR mice, IP, 25 mg/kg, Male (M49~M51)
[19] = Average, ICR mice, IP, 50 mg/kg, Male (M43~M45)
[20] = Female ICR mice, MTD study, IP route, 10 mg/kg & 5 mL/kg, M40~M42
[21] = Female ICR mice, MTD study, IP route, 25 mg/kg & 5 mL/kg, M52~M54
[22] = Female ICR mice, MTD study, IP route, 50 mg/kg & 5 mL/kg, M46~M48

Klebsiella pneumoniae (ATCC BAA-1705) MIC [2]: 64 µg/mL | Escherichia coli (ATCC 25922) MIC [3]: 32 µg/mL
SMILES: N=C(N)NCCC[C@@H]1NC(=O)[C@H](CCCNC(=N)N)NC(=O)[C@H](CCCNC(=N)N)NC(=O)[C@H](CCCNC(=N)N)NC(=O)[C@H](Cc2c[nH]c3ccccc23)NC(=O)[C@H](Cc2c[nH]c3ccccc23)NC(=O)[C@H](Cc2c[nH]c3ccccc23)NC(=O)[C@H](Cc2c[nH]c3ccccc23)NC(=O)[C@H](CCCNC(=N)N)NC(=O)[C@H](CCCNC(=N)N)NC1=O [IFX-318, [R6W4]] (cyclo(RRRRRRWWWW))
FIC peptides [1, 16]: FIC = 4 ug/ml | FIC peptides (MRSA (ATCC BAA-1556); [16]): FIC = 2 μg/ml | FIC peptides [4, 16]: FIC = 16 μg/ml | FIC peptides [5, 16]: FIC = 8 μg/ml

MRSA (ATCC BAA-1556) MIC [6]: 4 µg/mL | Pseudomonas aeruginosa (ATCC 27883) MIC [7]: 16 µg/mL | Klebsiella pneumoniae (ATCC BAA-1705) MIC [2]: 32 µg/mL | Escherichia coli (ATCC 25922) MIC [3]: 16 µg/mL
SMILES: N=C(N)NCCC[C@@H]1NC(=O)[C@H](CCCNC(=N)N)NC(=O)[C@H](CCCNC(=N)N)NC(=O)[C@H](CCCCN)NC(=O)[C@H](Cc2c[nH]c3ccccc23)NC(=O)[C@H](Cc2c[nH]c3ccccc23)NC(=O)[C@H](Cc2c[nH]c3ccccc23)NC(=O)[C@H](Cc2c[nH]c3ccccc23)NC(=O)[C@H](CCCNC(=N)N)NC(=O)[C@H](CCCNC(=N)N)NC1=O [[R4W5K] (IFX-315)] (cyclo(RRRRRWWWWK))

SMILES: N=C(N)NCCC[C@@H]1NC(=O)[C@H](CCCNC(=N)N)NC(=O)[C@H](CCCNC(=N)N)NC(=O)[C@H](Cc2c[nH]c3ccccc23)NC(=O)[C@H](Cc2c[nH]c3ccccc23)NC(=O)[C@H](Cc2c[nH]c3ccccc23)NC(=O)[C@H](Cc2c[nH]c3ccccc23)NC(=O)[C@H](CCCNC(=N)N)NC(=O)[C@H](CCCNC(=N)N)NC1=O [IFX-301, [R5W4]]
MIC (peptide) ([1]; Table 25, peptide alone): MIC = 32 ug/ml | FIC (peptide) [1, 17]: FIC = 8 ug/ml | Adrenal glands/Body Coefficient [8, 18]: 0.03% | Heart/Body Coefficient [8, 18]: 0.57% | Kidneys/Body Coefficient [8, 18]: 2.15% | Liver/Body Coefficient [8, 18]: 8.64% | Lung/Body Coefficient [8, 18]: 1.00% | Spleen/Body Coefficient [8, 18]: 0.46% | Testes/Body Coefficient [8, 18]: 0.62% | Thymus/Body Coefficient [8, 18]: 0.31% | Heart/Body Coefficient [8, 19]: 0.49% | Kidneys/Body Coefficient [8, 19]: 2.06% | Liver/Body Coefficient [8, 19]: 8.27% | Lung/Body Coefficient [8, 19]: 0.72% | Spleen/Body Coefficient [8, 19]: 0.68% | Testes/Body Coefficient [8, 19]: 0.69% | Thymus/Body Coefficient [8, 19]: 0.25% | Adrenal glands/Body Coefficient [8, 20]: 0.04% | Average Body Weight before Necropsy [8, 20]: 25 g | Brain/Body Coefficient [8, 20]: 1.77% | Heart/Body Coefficient [8, 20]: 0.51% | Kidneys/Body Coefficient [8, 20]: 1.46% | Liver/Body Coefficient [8, 20]: 6.51% | Lung/Body Coefficient [8, 20]: 0.89% | Ovaries/Body Coefficient [8, 20]: 0.08% | Spleen/Body Coefficient [8, 20]: 0.60% | Thymus/Body Coefficient [8, 20]: 0.48% | Adrenal glands/Body Coefficient [8, 21]: 0.05% | Average Body Weight before Necropsy [8, 21]: 23 g | Heart/Body Coefficient [8, 21]: 0.53% | Kidneys/Body Coefficient [8, 21]: 1.73% | Liver/Body Coefficient [8, 21]: 7.85% | Lung/Body Coefficient [8, 21]: 1.13% | Ovaries/Body Coefficient [8, 21]: 0.09% | Spleen/Body Coefficient [8, 21]: 0.64% | Thymus/Body Coefficient [8, 21]: 0.49% | Adrenal glands/Body Coefficient [8, 22]: 0.03% | Average Body Weight before Necropsy [8, 22]: 21 g | Heart/Body Coefficient [8, 22]: 0.49% | Kidneys/Body Coefficient [8, 22]: 1.84% | Liver/Body Coefficient [8, 22]: 7.82% | Lung/Body Coefficient [8, 22]: 0.75% | Ovaries/Body Coefficient [8, 22]: 0.08% | Spleen/Body Coefficient [8, 22]: 0.81% | Thymus/Body Coefficient [8, 22]: 0.35% | Average Body Weight ([8]; ICR mice, IP, 10 mg/kg, Day 1): 21 g | Average Body Weight ([8]; ICR mice, IP, 10 mg/kg, Day 2): 21 g | Average Body Weight Growth Rate ([8]; ICR mice, IP, 10 mg/kg, Day 2): 3.23% | Average Body Weight ([8]; ICR mice, IP, 10 mg/kg, Day 3): 22 g | Average Body Weight Growth Rate ([8]; ICR mice, IP, 10 mg/kg, Day 3): 4.84% | Average Body Weight ([8]; ICR mice, IP, 10 mg/kg, Day 4): 23 g | Average Body Weight Growth Rate ([8]; ICR mice, IP, 10 mg/kg, Day 4): 11.29% | Average Body Weight ([8]; ICR mice, IP, 10 mg/kg, Day 5): 24 g | Average Body Weight Growth Rate ([8]; ICR mice, IP, 10 mg/kg, Day 5): 16.13% | Average Body Weight ([8]; ICR mice, IP, 10 mg/kg, Day 6): 24 g | Average Body Weight Growth Rate ([8]; ICR mice, IP, 10 mg/kg, Day 6): 16.13% | Average Body Weight ([8]; ICR mice, IP, 10 mg/kg, Day 7): 24 g | Average Body Weight Growth Rate ([8]; ICR mice, IP, 10 mg/kg, Day 7): 17.74% | Average Body Weight ([8]; ICR mice, IP, 10 mg/kg, Day 8): 25 g | Average Body Weight Growth Rate ([8]; ICR mice, IP, 10 mg/kg, Day 8): 20.97% | clinical observation ([8]; mouse, in vivo): did not show any abnormalities | Average Body Weight before Necropsy ([8]; mouse, in vivo, ip, 10 mg/kg): 27 g | Average Body Weight before Necropsy ([8]; mouse, in vivo, ip, 25 mg/kg): 26 g | Average Body Weight before Necropsy ([8]; mouse, in vivo, ip, 50 mg/kg): 26 g | MRSA (ATCC BAA-1556) MIC [6]: 4 µg/mL | Pseudomonas aeruginosa (ATCC 27883) MIC [7]: 32 µg/mL | MIC (peptide) (MRSA (ATCC BAA-1556); Table 25, peptide alone): MIC = 4 ug/ml | FIC (peptide) (MRSA (ATCC BAA-1556); [17]): FIC = 1 ug/ml | MIC (peptide) ([4]; Table 25, peptide alone): MIC = 32 ug/ml | FIC (peptide) [4, 17]: FIC = 8 ug/ml | MIC (peptide) ([5]; Table 25, peptide alone): MIC = 16 ug/ml | FIC (peptide) [5, 17]: FIC = 4 ug/ml

MRSA (ATCC BAA-1556) MIC [12]: 32 µg/mL | PSA (ATCC 27883 MIC) [13]: 256 µg/mL | E. coli (ATCC 25922) MIC [14]: 32 µg/mL | KPC (ATCC BAA-1705) MIC [15]: 256 µg/mL
SMILES: N=C(N)NCCC[C@@H]1NC(=O)[C@H](CCCNC(=N)N)NC(=O)[C@H](CCCNC(=N)N)NC(=O)[C@H](CCCNC(=N)N)NC(=O)[C@@H](NC(=O)[C@H](Cc2c[nH]c3ccccc23)NC(=O)[C@H](Cc2c[nH]c3ccccc23)NC(=O)[C@H](Cc2c[nH]c3ccccc23)NC(=O)[C@@H](N)Cc2c[nH]c3ccccc23)CSSC[C@@H](C(=O)O)NC1=O [IFX-334] (H-WWWWCRRRRC-OH; disulfide 5-10)
E. coli (ATCC 25922) MBC [9]: 64 µg/mL | MRSA (ATCC BAA-1556) MBC [10]: 64 µg/mL | PSA (ATCC 27883) MBC [11]: 256 µg/mL
